In patent US20260232666A1, “COMPOSITIONS AND METHODS FOR INHIBITION OF RAS” (TheRas, Inc., priority 2023, published 2026):

Legend:
[1] = biological target: T1, GTP-loaded KRAS4b (amino acids 1-169) G12C/C118S protein (Homo sapiens, UniProt P01116, C118S/G12C); assay: Covalent cysteine 12 modification by MALDI-TOF MS, GTP-loaded KRAS G12C; format: binding; conditions: 15 minutes reaction time point
T1 construct: KRAS4b (amino acids 1-169) G12C/C118S protein; made in house
In short: (§1)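 1 μM GppNHp-, GTP- or GDP-loaded KRAS4b (1-169) G12C/C118S in 20 mM HEPES, 150 mM NaCl, 1 mM MgCl2, pH 7.3, at 1:2.5 protein:compound, room temperature in the dark. Percent Cys12 modification from MALDI-TOF peak heights (adduct/total protein), reported at 15 min.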

[2] = biological target: T2, Avi-KRAS G12C (1-169) GppNHp/RAF1 RBD-3×FLAG (52-151) (Homo sapiens, UniProt P01116, G12C); assay: Raf1 RBD-KRAS G12C-GppNHp disruption assay (protein:protein interaction HTRF); format: biochemical
T2 construct: Avi-KRAS G12C (1-169) GppNHp; Avi (N)
In short: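 HTRF measuring RAF1 RBD binding to GppNHp-loaded KRAS G12C (50 nM) in Tris pH 7.5, 100 mM NaCl, 5 mM MgCl2, 10% DMSO. Compound, KRAS, RBD and detection reagents each added sequentially with 1 h room-temperature incubations; 10-point titration; excitation 320 nm, emission 615 nm; activity as % of DMSO; IC50 derived.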

[3] = biological target: T3, GppNHp-loaded KRAS4b (amino acids 1-169) G12C/C118S protein (Homo sapiens, UniProt P01116, C118S/G12C); assay: Covalent cysteine 12 modification by MALDI-TOF MS, GppNHp-loaded KRAS G12C; format: binding; conditions: 15 minutes reaction time point
T3 construct: KRAS4b (amino acids 1-169) G12C/C118S protein; made in house
In short: as §1

Structure (SMILES)	GTP-KRAS G12C percent of modification [1]	IC50 [2] [µM]	GppNHp-KRAS G12C percent of modification [3]
C=CC(=O)N1CC[C@@H](N(CC)c2nc(OC[C@@H]3CC4(CC4)CN3C)nc3c(F)c(-c4ccc(F)c5sc(N)c(C#N)c45)c(C(F)(F)F)cc23)[C@H]1C [Compound 65]	A (percent of modification ≥70%)	< 0.5	A (percent of modification ≥70%)
C=CC(=O)N1CC[C@@H](N(CC)c2nc(OC[C@@H]3CCCN3C)nc3c(F)c(-c4ccc(F)c5sc(N)c(C#N)c45)c(C(F)(F)F)cc23)[C@H]1C [Compound 66]	A (percent of modification ≥70%)	< 0.5	A (percent of modification ≥70%)
C=CC(=O)N1CC[C@@H](N(C)c2nc(OC[C@@H]3CCCN3C)nc3c(F)c(-c4ccc(F)c5sc(N)c(C#N)c45)c(C(F)(F)F)cc23)[C@H]1C [Compound 67]	A (percent of modification ≥70%)	< 0.5	A (percent of modification ≥70%)
C=CC(=O)N1CC[C@@H](N(CC)c2nc(OC[C@@H]3C[C@@H](OC)CN3C)nc3c(F)c(-c4ccc(F)c5sc(N)c(C#N)c45)c(Cl)cc23)[C@H]1C [Compound 73]	C (10%≤percent of modification <50%)	< 0.5	B (50≤percent of modification <70%)
C=CC(=O)N1CC[C@@H](N(CC)c2nc(OC[C@@H]3CC4(CC4)CN3C)nc3c(F)c(-c4ccc(F)c5sc(N)c(C#N)c45)c(Cl)cc23)[C@H]1C [Compound 75]	A (percent of modification ≥70%)	< 0.5	A (percent of modification ≥70%)
C=CC(=O)N1CC[C@@H](N(CC)c2nc(OC[C@@]34CCCN3C[C@H](F)C4)nc3cc(-c4ccc(F)c5sc(N)c(C#N)c45)c(F)cc23)[C@H]1CC [Compound 76]	B (50≤percent of modification <70%)	< 0.5	A (percent of modification ≥70%)
C=CC(=O)N1CC[C@@H](N(CC)c2nc(OC[C@@]34CCCN3C[C@H](F)C4)nc3c(F)c(-c4ccc(F)c5sc(N)c(C#N)c45)c(Cl)cc23)[C@@H]1C [Compound 77]	A (percent of modification ≥70%)	< 0.5	A (percent of modification ≥70%)
C=CC(=O)N1CC[C@@H](N(C)c2nc(OC[C@@]34CCCN3C[C@H](F)C4)nc3c(F)c(-c4nc(N)cc(C)c4C(F)(F)F)c(Cl)cc23)[C@H]1C [Compound 78, 1-[(2R,3R)-3-[[7-[6-amino-4-methyl-3-(trifluoromethyl)-2-pyridyl]-6-chloro-8-fluoro-2-[[(2R,8S)-2-fluoro-1,2,3,5,6,7-hexahydropyrrolizin-8-yl]methoxy]quinazolin-4-yl]-methyl-amino]-2-methyl-pyrrolidin-1-yl]prop-2-en-1-one]	A (percent of modification ≥70%)	< 0.5	A (percent of modification ≥70%)
C=CC(=O)N1CC[C@@H](N(C)c2nc(OC[C@@H]3C[C@@H](OC)CN3C)nc3c(F)c(-c4ccc(F)c5sc(N)c(C#N)c45)c(Cl)cc23)[C@@H]1C [Compound 79]	C (10%≤percent of modification <50%)	< 0.5	A (percent of modification ≥70%)
C=CC(=O)N1CC[C@@H](N(C)c2nc(N3CC(N(C)C)C3)nc3c(F)c(-c4ccc(F)c5sc(N)c(C#N)c45)c(C(F)(F)F)cc23)[C@H]1C [Compound 80]	C (10%≤percent of modification <50%)	< 0.5	B (50≤percent of modification <70%)
C=CC(=O)N1CC[C@@H](N(C)c2nc(OC[C@@H]3C[C@@H](F)CN3C)nc3c(F)c(-c4ccc(F)c5sc(N)c(C#N)c45)c(Cl)cc23)[C@@H]1C [Compound 82]	C (10%≤percent of modification <50%)	< 0.5	A (percent of modification ≥70%)
